From patent US10485236B2, “Triazole derivatives, intermediates thereof and their use as fungicides” (Bayer CropScience Aktiengesellschaft, priority 2015, dated 2019) come the findings set out here.

What is called chromatographic logP is lipophilicity estimated from chromatographic retention.

Series [1] in a line: Measurement of LogP values by HPLC on reversed phase columns (EEC directive 79/831 Annex V.A8). In kind it is physicochemical. The note with it: reversed phase HPLC column. In outline:
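Calibrated with straight-chain alkan-2-ones (3–16 carbons) of known LogP, using retention times with linear interpolation between successive alkanones. Where one method gives several LogP values, all are listed, joined by "+". Lambda-max taken from UV spectra (200–400 nm) at chromatographic peak maxima.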

The subject of the next series is Puccinia recondita. The series is described as follows: Example B: in vivo preventive test on Puccinia recondita (brown rust on wheat). The settings on record: 264 h, 500 ppm of active ingredient, wheat plants, preventive spray, evaluated 11 days after inoculation, read-out: efficacy. How it is done: (§1) Example B: In Vivo Preventive Test on Puccinia recondita (Brown Rust on Wheat) [table] The active ingredients are made soluble and homogenized in a mixture of Dimethyl sulfoxide/Acetone//Tween® 80 and then diluted in water to the desired concentration. The young plants of wheat are treated by spraying the active ingredient prepared as described above. Control plants are treated only with an aqueous solution of Acetone/Dimethyl sulfoxide/Tween® 80. After 24 hours, the plants are contaminated by spraying the leaves with an aqueous suspension of Puccinia recondita spores. The contaminated wheat plants are incubated for 24 hours at 20° C. and at 100% relative humidity and then for 10 days at 20° C. and at 70-80% relative humidity. The test is evaluated 11 days after the inoculation. 0% means an efficacy which corresponds to that of the control plants while an efficacy of 100% means that no disease is observed.

A further series has as its system Septoria tritici. The series is described as follows: Example C: in vivo preventive test on Septoria tritici (leaf spot on wheat). The note with it: Zymoseptoria tritici, 576 h; 500 ppm of active ingredient; wheat plants, preventive spray; evaluated 24 days after inoculation; read-out: efficacy. How it is done: Example C: In Vivo Preventive Test on Septoria tritici (Leaf Spot on Wheat) [table] The active ingredients are made soluble and homogenized in a mixture of Dimethyl sulfoxide/Acetone//Tween® 80 and then diluted in water to the desired concentration. The young plants of wheat are treated by spraying the active ingredient prepared as described above. Control plants are treated only with an aqueous solution of Acetone/Dimethyl sulfoxide/Tween® 80. After 24 hours, the plants are contaminated by spraying the leaves with an aqueous suspension of Septoria tritici spores. The contaminated wheat plants are incubated for 72 hours at 18° C. and at 100% relative humidity and then for 21 days at 20° C. and at 90% relative humidity. The test is evaluated 24 days after the inoculation. 0% means an efficacy which corresponds to that of the control plants while an efficacy of 100% means that no disease is observed.

The subject of the next series is Sphaerotheca fuliginea. In words: Example D: in vivo preventive test on Sphaerotheca fuliginea (powdery mildew on cucurbits). The settings on record: Podosphaera fuliginea, 360 h; 500 ppm of active ingredient; gherkin plants, preventive spray; evaluated 15 days after inoculation; read-out: efficacy. How it is done: Example D: In Vivo Preventive Test on Sphaerotheca fuliginea (Powdery Mildew on Cucurbits) [table] The active ingredients are made soluble and homogenized in a mixture of Dimethyl sulfoxide/Acetone//Tween® 80 and then diluted in water to the desired concentration. The young plants of gherkin are treated by spraying the active ingredient prepared as described above. Control plants are treated only with an aqueous solution of Acetone/Dimethyl sulfoxide/Tween® 80. After 24 hours, the plants are contaminated by spraying the leaves with an aqueous suspension of Sphaerotheca fuliginea spores. The contaminated gherkin plants are incubated for 72 hours at 18° C. and at 100% relative humidity and then for 12 days at 20° C. and at 70-80% relative humidity. The test is evaluated 15 days after the inoculation. 0% means an efficacy which corresponds to that of the control plants while an efficacy of 100% means that no disease is observed.

A further series has as its system Uromyces appendiculatus. The series is described as follows: Example E: in vivo preventive test on Uromyces appendiculatus (bean rust). The note with it: 264 h, 500 ppm of active ingredient, bean plants, preventive spray, evaluated 11 days after inoculation, read-out: efficacy. How it is done: as §1, with “E:” for “B:”, “Uromyces appendiculatus (Bean Rust)” for “Puccinia recondita (Brown Rust on Wheat)”, “bean” for “wheat”, “Uromyces appendiculatus” for “Puccinia recondita”

Another series has as its system Phakopsora pachyrhizi. In words: Example G: in vivo preventive test on Phakopsora test (soybeans). The settings on record: 168 h, 100 ppm of active ingredient, preventive spray, evaluated 7 days after inoculation, read-out: efficacy. On the procedure: Example G: In Vivo Preventive Test on Phakopsora Test (Soybeans) [table] To produce a suitable preparation of active compound, 1 part by weight of active compound is mixed with the stated amounts of solvent and emulsifier, and the concentrate is diluted with water to the desired concentration. To test for preventive activity, young plants are sprayed with the preparation of active compound at the stated rate of application. After the spray coating has dried on, the plants are inoculated with an aqueous spore suspension of the causal agent of soybean rust (Phakopsora pachyrhizi) and stay for 24 h without light in an incubation cabinet at approximately 24° C. and a relative atmospheric humidity of 95%. The plants remain in the incubation cabinet at approximately 24° C. and a relative atmospheric humidity of approximately 80% and a day/night interval of 12 h. The test is evaluated 7 days after the inoculation. 0% means an efficacy which corresponds to that of the untreated control, while an efficacy of 100% means that no disease is observed.

For the next series, the system named is Venturia inaequalis. In words: Example H: in vivo preventive test on Venturia test (apples). The settings on record: 240 h, 100 ppm of active ingredient, preventive spray, evaluated 10 days after inoculation, read-out: efficacy. On the procedure:
Example H: In Vivo Preventive Test on Venturia Test (Apples) [table] To produce a suitable preparation of active compound, 1 part by weight of active compound is mixed with the stated amounts of solvent and emulsifier, and the concentrate is diluted with water to the desired concentration. To test for preventive activity, young plants are sprayed with the preparation of active compound at the stated rate of application. After the spray coating has dried on, the plants are inoculated with an aqueous conidia suspension of the causal agent of apple scab (Venturia inaequalis) and then remain for 1 day in an incubation cabinet at approximately 20° C. and a relative atmospheric humidity of 100%. The plants are then placed in a greenhouse at approximately 21° C. and a relative atmospheric humidity of approximately 90%. The test is evaluated 10 days after the inoculation. 0% means an efficacy which corresponds to that of the untreated control, while an efficacy of 100% means that no disease is observed.

The mark [2] stands for this setting: method [a]: LC-UV, acidic range, 0.1% formic acid in water and acetonitrile as eluent.

Regarding `CC(O)(Cn1cncn1)c1ccc(Oc2ccc(Cl)cc2)nc1C(F)(F)F` (stereo not shown) [I.01, 2-[6-(4-chlorophenoxy)-2-(trifluoromethyl)-3-pyridyl]-1-(1,2,4-triazol-1-yl)propan-2-ol], the chromatographic logP in series [1] (setting [2]) came to 2.88. In addition, the pest or weed control at 500 ppm with Puccinia recondita, with Septoria tritici, with Sphaerotheca fuliginea and with Uromyces appendiculatus was 90 to 100% each time. Further, the pest or weed control at 100 ppm in the series on Phakopsora pachyrhizi and in the series with Venturia inaequalis was 90 to 100% throughout.
Take `CC(O)(Cn1cncn1)c1cnc(Oc2ccc(Cl)cc2)cc1C(F)(F)F` (stereo not shown) [I.02, 2-[6-(4-chlorophenoxy)-4-(trifluoromethyl)-3-pyridyl]-1-(1,2,4-triazol-1-yl)propan-2-ol]: the chromatographic logP in series [1] (setting [2]) amounted to 2.9. Further, the pest or weed control at 500 ppm in the series on Puccinia recondita lay within 90 to 100%; with Septoria tritici, 80 to 89%; in the series with Sphaerotheca fuliginea, 90 to 100%; in the series with Uromyces appendiculatus it was 90 to 100%. For the same compound, the pest or weed control at 100 ppm with Phakopsora pachyrhizi and in the series on Venturia inaequalis was 90 to 100% throughout.
In turn, `OC(Cn1cncn1)c1ccc(Oc2ccc(Cl)cc2)nc1C(F)(F)F` (stereo not shown) [I.03, 1-[6-(4-chlorophenoxy)-2-(trifluoromethyl)-3-pyridyl]-2-(1,2,4-triazol-1-yl)ethanol] displayed a chromatographic logP in series [1] (setting [2]) of 2.7. Besides, the pest or weed control at 500 ppm in the series on Puccinia recondita, with Septoria tritici, with Sphaerotheca fuliginea and with Uromyces appendiculatus was 90 to 100% in each case. Also, the pest or weed control at 100 ppm in the series with Phakopsora pachyrhizi and in the series with Venturia inaequalis was 90 to 100% each time.
Take `CC(O)(Cn1cncn1)c1cnc(Oc2ccccc2)cc1Cl` (stereo not shown) [I.05]: the chromatographic logP was found to be 2.1 in series [1] (setting [2]); 2.06 in series [1] (method [b]: LC-UV, neutral range, 0.001 molar ammonium acetate solution in water and acetonitrile as eluent). Besides, the pest or weed control at 500 ppm with Puccinia recondita, in the series with Septoria tritici, with Sphaerotheca fuliginea and with Uromyces appendiculatus was 90 to 100% each time. Also, the pest or weed control at 100 ppm in the series on Phakopsora pachyrhizi and in the series with Venturia inaequalis was 90 to 100% each time.
In turn, `OC(Cn1cncn1)c1ccc(Oc2ccc(Cl)cc2)nc1Cl` (stereo not shown) [I.14] came in with a chromatographic logP in series [1] (setting [2]) of 2.42. For the same compound, the pest or weed control at 500 ppm in the series on Puccinia recondita, in the series with Septoria tritici, in the series with Sphaerotheca fuliginea and with Uromyces appendiculatus was 90 to 100% each time. Besides, the pest or weed control at 100 ppm in the series on Phakopsora pachyrhizi and with Venturia inaequalis was 90 to 100% in each case.
`Cc1ccc(Oc2ccc(C(O)Cn3cncn3)c(Cl)n2)cc1Cl` (stereo not shown) [I.16] yielded a chromatographic logP in series [1] (setting [2]) of 2.73. For the same compound, the pest or weed control at 500 ppm with Puccinia recondita lay within 80 to 89%; in the series on Septoria tritici it was 80 to 89%; in the series with Sphaerotheca fuliginea it was 90 to 100%; in the series on Uromyces appendiculatus it was 90 to 100%. For the same compound, the pest or weed control at 100 ppm in the series on Phakopsora pachyrhizi and in the series on Venturia inaequalis was 90 to 100% throughout.
For the compound `CC(O)(Cn1cncn1)c1ccc(Oc2ccc(S(F)(F)(F)(F)F)cc2)nc1Cl` (stereo not shown) [I.35], the chromatographic logP in series [1] (setting [2]) came to 3.17. Moreover, the pest or weed control at 500 ppm in the series with Puccinia recondita, in the series on Septoria tritici, in the series with Sphaerotheca fuliginea and with Uromyces appendiculatus was 90 to 100% each time. Also, the pest or weed control at 100 ppm in the series on Phakopsora pachyrhizi lay in the range of 70 to 79%; in the series with Venturia inaequalis, 90 to 100%.
As for `OC(Cn1cncn1)c1cnc(Oc2ccc(S(F)(F)(F)(F)F)cc2)cc1C(F)(F)F` (stereo not shown) [I.36], the chromatographic logP in series [1] (setting [2]) was found to be 3.15. Further, the pest or weed control at 500 ppm in the series with Puccinia recondita was 90 to 100%; in the series with Septoria tritici it was 80 to 89%; in the series on Sphaerotheca fuliginea, 90 to 100%; in the series with Uromyces appendiculatus, 90 to 100%. For the same compound, the pest or weed control at 100 ppm in the series with Phakopsora pachyrhizi and in the series with Venturia inaequalis was 90 to 100% each time.
Regarding `CC(O)(Cn1cncn1)c1ccc(Oc2ccc(C(F)F)cc2)nc1Cl` (stereo not shown) [I.39], the chromatographic logP in series [1] (setting [2]) worked out at 2.41. Also, the pest or weed control at 500 ppm with Puccinia recondita, in the series on Septoria tritici, in the series with Sphaerotheca fuliginea and with Uromyces appendiculatus was 90 to 100% each time. The pest or weed control at 100 ppm in the series with Phakopsora pachyrhizi was in the range of 90 to 100%; in the series on Venturia inaequalis, 80 to 89%.
In turn, `C[C@@](O)(Cn1cncn1)c1cnc(Oc2ccc(Cl)cc2)cc1C(F)(F)F` [I.45] displayed a chromatographic logP in series [1] (setting [2]) of 2.84. The pest or weed control at 500 ppm in the series on Puccinia recondita, with Septoria tritici, in the series on Sphaerotheca fuliginea and with Uromyces appendiculatus was 90 to 100% each time. The pest or weed control at 100 ppm in the series on Phakopsora pachyrhizi and with Venturia inaequalis was 90 to 100% in each case.
Compound `OC(Cn1cncn1)c1cnc(Oc2ccc(C(F)(F)F)cc2)cc1C(F)(F)F` (stereo not shown) [I.47] displayed a chromatographic logP in series [1] (setting [2]) of 2.84. Further, the pest or weed control at 500 ppm with Puccinia recondita, in the series on Septoria tritici, in the series with Sphaerotheca fuliginea and in the series on Uromyces appendiculatus was 90 to 100% each time. The pest or weed control at 100 ppm in the series with Phakopsora pachyrhizi and in the series with Venturia inaequalis was 90 to 100% each time.
The compound `OC(Cn1cncn1)(c1ccc(Oc2ccc(Cl)cc2)nc1C(F)(F)F)C1CC1` (stereo not shown) [I.91, 1-[6-(4-chlorophenoxy)-2-(trifluoromethyl)-3-pyridyl]-1-cyclopropyl-2-(1,2,4-triazol-1-yl)ethanol] showed a chromatographic logP in series [1] (setting [2]) of 3.26. In addition, the pest or weed control at 500 ppm in the series with Puccinia recondita, with Septoria tritici, in the series on Sphaerotheca fuliginea and in the series with Uromyces appendiculatus was 90 to 100% each time. For the same compound, the pest or weed control at 100 ppm in the series on Phakopsora pachyrhizi and in the series with Venturia inaequalis was 90 to 100% each time.
